These results are taken from ChEMBL document CHEMBL4387774, “Design, synthesis, and evaluation of a water soluble C5-monoketone type curcumin analogue as a potent amyloid β aggregation inhibitor” (Bioorg Med Chem Lett, 2019).

In brackets after ≈: the same amount, converted by molar mass. Activity calls are given as the source filed them. The rule behind the calls is not given here.

Data set [1] can be described thus: Aqueous solubility of the compound at 1 mg measured after 12 hrs by shake flask method. The format is physicochemical. The conditions noted are these: water.
The target of data set [2] is Amyloid-beta precursor protein (Homo sapiens) (UniProt P05067). The experiment in a line: Inhibition of self-induced amyloid beta 42 (unknown origin) aggregation at 1 uM incubated for 20 hrs by thioflavin-T fluorescence assay relative to control.
Sequence of Amyloid-beta precursor protein (Homo sapiens) (P05067 whole entry, the tested form may be a part): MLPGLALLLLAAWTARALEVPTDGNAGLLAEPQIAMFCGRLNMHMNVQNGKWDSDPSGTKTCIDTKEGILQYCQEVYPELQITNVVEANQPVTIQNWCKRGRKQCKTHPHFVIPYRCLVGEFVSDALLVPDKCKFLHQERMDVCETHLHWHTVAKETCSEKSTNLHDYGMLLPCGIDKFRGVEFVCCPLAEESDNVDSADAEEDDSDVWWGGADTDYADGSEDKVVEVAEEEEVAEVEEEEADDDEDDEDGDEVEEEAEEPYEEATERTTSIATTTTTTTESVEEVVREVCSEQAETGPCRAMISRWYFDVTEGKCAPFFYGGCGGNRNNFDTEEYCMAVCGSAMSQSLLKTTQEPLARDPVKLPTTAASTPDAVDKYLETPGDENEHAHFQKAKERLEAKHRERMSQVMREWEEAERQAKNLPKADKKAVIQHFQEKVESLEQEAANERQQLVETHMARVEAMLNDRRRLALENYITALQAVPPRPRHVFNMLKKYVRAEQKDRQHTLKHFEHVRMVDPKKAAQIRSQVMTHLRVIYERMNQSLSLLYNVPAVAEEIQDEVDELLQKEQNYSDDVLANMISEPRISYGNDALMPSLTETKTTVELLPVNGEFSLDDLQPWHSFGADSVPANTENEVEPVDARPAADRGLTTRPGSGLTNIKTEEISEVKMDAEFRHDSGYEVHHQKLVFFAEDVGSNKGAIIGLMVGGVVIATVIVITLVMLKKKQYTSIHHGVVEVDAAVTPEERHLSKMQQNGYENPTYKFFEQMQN
The target is the same in data set [3]. In words: Inhibition of self-induced amyloid beta 42 (unknown origin) fibril formation at 10 uM incubated for 6 hrs by thioflavin-T fluorescence assay relative to control.
The nature of data set [4]: Cytotoxicity against rat PC12 cells measured after 24 hrs by WST8/PMS assay. The format is cell-based, PC-12. A general note: Tetrazolium dyes change colour on reduction, which living cells bring about.
A short description of data set [5]: Antioxidant activity assessed as DPPH radical scavenging activity measured after 30 mins. The format is functional. (DPPH is a stable violet radical that fades when it is reduced.)
Data set [6] concerns the target Amyloid-beta precursor protein (Homo sapiens) (UniProt P05067). The experiment in a line: Inhibition of self-induced amyloid beta 42 (unknown origin) aggregation at 10 uM incubated for 20 hrs by thioflavin-T fluorescence assay relative to control.
For data set [7] the target is unchanged. The experiment in a line: Disaggregation of self-induced amyloid beta 42 (unknown origin) preformed fibrils assessed as length of nanorod-like fragment by TEM analysis.
The target is the same in data set [8]. The experiment in a line: Disaggregation of self-induced amyloid beta 42 (unknown origin) preformed fibrils assessed as appearance of nanorod-like fragment by […] analysis.

One may read the thermodynamic solubility as solubility found after equilibrating the solid with the medium. A word on the inhibition: it is the drop in the measured response relative to a control, in per cent. As usually defined, the CC50 is the concentration giving 50% cytotoxicity. As usually defined, the IC50 is the concentration at which inhibition is half-maximal. In turn, `O=C(/C=C/c1cc(O)ccc1O)CC(=O)/C=C/c1cc(O)ccc1O` returned a solubility (thermodynamic) at 12 h in data set [1] of 5 µM (≈ 1.7 µg/mL). In addition, the inhibition in data set [2] was 99%; in data set [3], 95 to 100%. It took 24 µM to reach half-maximal cytotoxicity in data set [4] (CC50 at 24 h). For the same compound, in data set [5], the IC50 worked out at 57 µM.
`O=C(/C=C/c1ccccc1O)CC(=O)c1ccc(O)c(O)c1` registered a thermodynamic solubility at 12 h in data set [1] of 77 µM (≈ 23 µg/mL). In data set [2], the inhibition stood at 90%. Moreover, the CC50 at 24 h in data set [4] is more than 90 µM. The IC50 in data set [5] was found to be 16 µM.
`COc1cc(/C=C/C(=O)CC(=O)/C=C/c2ccc(O)c(OC)c2)ccc1O` [CURCUMIN] gave a solubility (thermodynamic) at 12 h in data set [1] of 0.19 µM (≈ 0.07 µg/mL). The compound further gave a CC50 at 24 h in data set [4] of 42 µM. Also, the IC50 in data set [5] stood at 45 µM.
With `O=C(/C=C/c1ccccc1O)/C=C/c1cccc(O)c1O`, in data set [1], the thermodynamic solubility at 12 h came out at 151 µM (≈ 42.6 µg/mL). Further, the inhibition in data set [2] was found to be 98%. In data set [4], this compound came in with a CC50 at 24 h of 54 µM. Besides, the IC50 in data set [5] was found to be 99 µM.
In data set [1], `O=C(/C=C(O)/C=C/c1ccccc1O)/C=C/c1ccc(O)c(O)c1` registered a solubility (thermodynamic) at 12 h of 31 µM (≈ 10.1 µg/mL). The inhibition in data set [2] was found to be 62%.
Regarding `O=C(/C=C/c1cccc(O)c1)CC(=O)/C=C/c1cc(O)ccc1O`, the solubility (thermodynamic) at 12 h in data set [1] is 5.8 µM (≈ 1.88 µg/mL). The inhibition was 56% in data set [2] and 95 to 100% in data set [3]. In data set [4], this compound yielded a CC50 at 24 h of 15 µM. Also, the IC50 in data set [5] is 88 µM.
Regarding `O=C(/C=C/c1ccc(O)c(O)c1)CC(=O)/C=C/c1cccc(O)c1O`, in data set [1], the solubility (thermodynamic) at 12 h is 3.8 µM (≈ 1.29 µg/mL). Further, the inhibition in data set [6] is 98%; in data set [3], 95 to 100%. In data set [4], this compound had a CC50 at 24 h of 16 µM. In addition, in data set [5], the IC50 came to 19 µM.
`O=C(/C=C/c1ccc(O)c(O)c1)c1cc(O)ccc1O` registered a thermodynamic solubility at 12 h in data set [1] of 16 µM (≈ 4.36 µg/mL). This compound had an inhibition in data set [2] of 85%. For the same compound, in data set [4], the CC50 at 24 h was determined as 80 µM. Moreover, in data set [5], the IC50 worked out at 39 µM.
In data set [1], `O=C(/C=C/c1cc(O)ccc1O)CC(=O)c1cccc(O)c1O` showed a thermodynamic solubility at 12 h of 32 µM (≈ 10.1 µg/mL). The compound further registered an inhibition in data set [2] of 100%. In data set [4], this compound had a CC50 at 24 h of 63 µM. Moreover, the IC50 in data set [5] worked out at 28 µM.
In the same order, the values of `O=C(/C=C/c1cc(O)ccc1O)CC(=O)c1ccc(O)c(O)c1` are 47 µM (≈ 14.8 µg/mL), 98%, more than 100 µM and 82 µM.
In turn, `O=C(/C=C/c1cccc(O)c1)CC(=O)c1ccc(O)c(O)c1` had a thermodynamic solubility at 12 h in data set [1] of 25 µM (≈ 7.46 µg/mL). In data set [2], the inhibition stood at 85%. In data set [4], the CC50 at 24 h was more than 100 µM. Moreover, in data set [5], the IC50 was determined as 10 µM.
In the same order, the values of `O=C(/C=C/c1ccc(O)c(O)c1)/C=C/c1cc(O)ccc1O` are 123 µM (≈ 36.7 µg/mL), 100%, 39 µM and 25 µM.
`O=C(/C=C/c1cccc(O)c1O)CC(=O)/C=C/c1cccc(O)c1O`: in data set [1], the solubility (thermodynamic) at 12 h was 5.3 µM (≈ 1.8 µg/mL). Besides, the inhibition is 93% in data set [2] and 95 to 100% in data set [3]. This compound had a CC50 at 24 h in data set [4] of 39 µM. In addition, the IC50 in data set [5] stood at 30 µM.
In data set [1], `O=C(/C=C/c1ccc(O)cc1)/C=C/c1cccc(O)c1O` registered a thermodynamic solubility at 12 h of 120 µM (≈ 33.9 µg/mL). This compound came in with an inhibition in data set [2] of 96%. In addition, the CC50 at 24 h in data set [4] is 12 µM. The IC50 in data set [5] was 40 µM.
`O=C(/C=C/c1ccccc1O)CC(=O)/C=C/c1cc(O)ccc1O`: in data set [1], the solubility (thermodynamic) at 12 h stood at 4.4 µM (≈ 1.43 µg/mL). The figures for the inhibition in data set [2] and in data set [3] were 80% and 95 to 100%, respectively. For the same compound, in data set [4], the CC50 at 24 h is 38 µM. Further, the IC50 in data set [5] was 48 µM.
The matching figures for `O=C(/C=C/c1ccccc1O)CC(=O)/C=C/c1cccc(O)c1O`: 11 µM (≈ 3.57 µg/mL), 92%, 95 to 100%, 34 µM and 23 µM.
In data set [1], `O=C(/C=C/c1cccc(O)c1O)c1cc(O)ccc1O` displayed a solubility (thermodynamic) at 12 h of 33 µM (≈ 8.98 µg/mL). This compound gave an inhibition in data set [2] of 98%. The compound further came in with a CC50 at 24 h in data set [4] of 89 µM. Besides, the IC50 in data set [5] is 48 µM.
The matching figures for `O=C(/C=C/c1cccc(O)c1)/C=C/c1cccc(O)c1O`: 184 µM (≈ 51.9 µg/mL), 90%, 46 µM and 48 µM.
The matching figures for `O=C(/C=C/c1cccc(O)c1)/C=C/c1ccc(O)c(O)c1`: 60 µM (≈ 16.9 µg/mL), 100%, more than 100 µM and 71 µM.
For `O=C(/C=C/c1cc(O)ccc1O)CC(=O)/C=C/c1cccc(O)c1O`, in data set [1], the solubility (thermodynamic) at 12 h was 100 µM (≈ 34 µg/mL). Also, the inhibition in data set [2] was 100%; in data set [3] it was 95 to 100%. In data set [4], this compound displayed a CC50 at 24 h of 53 µM. The IC50 in data set [5] turned out to be 27 µM.
Consider `O=C(/C=C/c1ccc(O)cc1)/C=C/c1ccc(O)c(O)c1`, for which the thermodynamic solubility at 12 h in data set [1] came out at 19 µM (≈ 5.36 µg/mL). In data set [2], this compound displayed an inhibition of 75%. In data set [4], this compound yielded a CC50 at 24 h of 12 µM. In data set [5], the IC50 was 24 µM.
In data set [1], `O=C(/C=C/c1ccc(O)cc1)CC(=O)/C=C/c1cccc(O)c1O` had a solubility (thermodynamic) at 12 h of 4.8 µM (≈ 1.56 µg/mL). The inhibition in data set [6] is 100%; in data set [3], 95 to 100%. Moreover, the CC50 at 24 h in data set [4] was 8.5 µM. In data set [5], the IC50 was 27 µM.
`O=C(/C=C/c1ccc(O)cc1)CC(=O)/C=C/c1cc(O)ccc1O` yielded a thermodynamic solubility at 12 h in data set [1] of 0.57 µM (≈ 0.185 µg/mL). In addition, the inhibition in data set [2] is 53%; in data set [3] it was 95 to 100%. In data set [4], this compound yielded a CC50 at 24 h of 21 µM. For the same compound, the IC50 in data set [5] amounted to 41 µM.
As to `O=C(/C=C/c1cc(O)ccc1O)/C=C/c1cccc(O)c1O`, the solubility (thermodynamic) at 12 h in data set [1] worked out at 271 µM (≈ 80.8 µg/mL). The compound further yielded an inhibition in data set [2] of 100%. Besides, the midpoint of cytotoxicity in data set [4], the CC50 at 24 h, lay at 59 µM. The IC50 in data set [5] is 13 µM. In addition, the Activity in data set [7] is 50 to 500 nm. In addition, the outcome in data set [8] was Active.
Consider `O=C(/C=C/c1ccc(O)c(O)c1)CC(=O)/C=C/c1cc(O)ccc1O`, for which the solubility (thermodynamic) at 12 h in data set [1] worked out at 54 µM (≈ 18.4 µg/mL). The figures for the inhibition in data set [2] and in data set [3] were 57% and 95 to 100%, respectively. The CC50 at 24 h in data set [4] worked out at 51 µM. In addition, in data set [5], the IC50 was found to be 60 µM.
Compound `O=C(/C=C/c1ccc(O)c(O)c1)/C=C/c1ccccc1O` gave a solubility (thermodynamic) at 12 h in data set [1] of 111 µM (≈ 31.3 µg/mL). In addition, in data set [2], the inhibition was 100%. The same compound gave a CC50 at 24 h in data set [4] of 34 µM. Further, the IC50 in data set [5] is 62 µM.
`O=C(/C=C/c1cccc(O)c1)CC(=O)/C=C/c1cccc(O)c1O`: in data set [1], the solubility (thermodynamic) at 12 h stood at 8.2 µM (≈ 2.66 µg/mL). In addition, the inhibition in data set [6] is 100%; in data set [3], 95 to 100%. Also, the midpoint of cytotoxicity in data set [4], the CC50 at 24 h, lay at 38 µM. Also, in data set [5], the IC50 was determined as 29 µM.
